# According to patent US9539301B2, “Melanotropin ligands for skin care” (THE ARIZONA BOARD OF REGENTS ON BEHALF OF THE UNIVERSITY OF …, priority 2011, dated 2017):
# Square brackets hold non-standard residues; d marks the D form. Side chains are listed from the residue outwards. Peptide text beside a SMILES is read from it. * marks the point of attachment. Cy5 maleimide = Cy5 dye as its maleimide, reacted with a thiol compound; d2Nal = N[C@H](Cc1ccc2ccccc2c1)C(=O)O; Butanoyl(4-Ph) = O=C(CCCc1ccccc1)*; Butanoyl(4-ethynyl) = C#CCCCC(=O)*; Nle = CCCC[C@H](N)C(=O)O; Mpa = O=C(O)CCS
# Experiments:
# MC1R = MC1R (Homo sapiens, UniProt Q01726); experiment: Europium time-resolved fluorescence competitive binding assay (Eu-NDP-α-MSH) on HCT116/hMC1R cells; set-up: host or cells: HCT116; conditions: for 1R/4R selectivity (values determined): ratio of MC4R Ki to MC1R Ki
# Method: (§1) HCT116 cells overexpressing hMC1R and HEK293 cells overexpressing hMC4R[23] or hMC5R were used in all studies. […] Cells were maintained under standard conditions (37° C. and 5% CO2) and were grown in Dulbecco's modified Eagle medium (DMEM) supplemented with 10% FBS and 5% penicillin/streptomycin. For HCT116/hMC1R cells, geneticin (G418S, 0.4 mg/mL) was added to the media to ensure proper selection.
# Competitive binding assays were performed using HCT116/hMC1R cells and HEK293/hMC4R or hMC5R as previously described, with slight modifications. […] Poly-D-Lysine Coated Plates contain a PDL polymer coating that creates a uniform positive charge at the surface of the plastic, thereby facilitating cell attachment, growth and differentiation. […] Both labeled and non-labeled ligands were diluted in binding media (DMEM, 1 mM 1,10-phenanthroline, 200 mg/L bacitracin, 0.5 mg/L leupeptin, 0.3% BSA). In the case of the triblock polymer micelle solutions, micelles were allowed to equilibrate in solution for a period of 30 min prior to cell addition. Cells were incubated with labeled and non-labeled ligands for 1 hour at 37° C. Following incubation, cells were washed three times with wash buffer (50 mM Tris-HCl, 0.2% BSA, 30 mM NaCl) and 50 µL of enhancement solution (PerkinElmer) was added to each well. Cells were incubated for an additional 30 min at 37° C. prior to reading. […] Competition curves were analyzed with GraphPad Prism software using the sigmoidal dose-response (variable slope) classical equation for nonlinear regression analysis.
# Competitive binding assays were also performed using 4-targeted triblock polymers, triblock polymer micelles, as well as untargeted micelles as a control (FIG. 4A-C).
# Europium binding assays were conducted as previously published.^33, 40
# Time-resolved lanthanide fluorescence competitive binding assays^33, 40 were performed in an effort to optimize ligand loading for maximal avidity. In these assays, increasing concentrations of micelles were measured for their ability to competitively displace Eu-labeled NDP-α-MSH 2. The remaining Eu was then measured using time resolved fluorescence (TRF, see Methods).
# MC5R [1] = target: T1, MC5R (Homo sapiens, UniProt P33032); experiment: Europium competitive binding assay on HEK293/hMC5R cells; set-up: expressed in transfected cells; host or cells: HEK293
# Method: HCT116 cells overexpressing hMC1R and HEK293 cells overexpressing hMC4R[23] or hMC5R were used in all studies. The parental human colorectal carcinoma cell line, HCT116 (American Type Culture Collection, CCL 247) was also used. Cells were maintained under standard conditions (37° C. and 5% CO2) and were grown in Dulbecco's modified Eagle medium (DMEM) supplemented with 10% FBS and 5% penicillin/streptomycin. For HCT116/hMC1R cells, geneticin (G418S, 0.4 mg/mL) was added to the media to ensure proper selection.
# Competitive binding assays were performed using HCT116/hMC1R cells and HEK293/hMC4R or hMC5R as previously described, with slight modifications. HCT116/hMC1R cells were plated in black PerkinElmer 96-well plates and HEK293/hMC4R and HEK293/hMC5R cells were plated on SigmaScreen Poly-D-Lysine Coated Plates (SigmaAldrich), all at a density of 10,000-30,000 cells/well. […] Cells were incubated for an additional 30 min at 37° C. prior to reading. The plates were read on a PerkinElmer VICTOR×4 2030 multilabel reader using the standard Eu TRF measurement (340 nm excitation, […], and emission collection for […] at 615 nm). Competition curves were analyzed with GraphPad Prism software using the sigmoidal dose-response (variable slope) classical equation for nonlinear regression analysis. […]
# MC4R = MC4R (Homo sapiens, UniProt P32245); experiment: Europium competitive binding assay on HEK293/hMC4R cells; set-up: expressed in transfected cells; host or cells: HEK293
# Method: as §1
# Competitive binding assays were performed using HCT116/hMC1R cells and HEK293/hMC4R or hMC5R as previously described, with slight modifications. HCT116/hMC1R cells were plated in black PerkinElmer 96-well plates and HEK293/hMC4R and HEK293/hMC5R cells were plated on SigmaScreen Poly-D-Lysine Coated Plates (SigmaAldrich), all at a density of 10,000-30,000 cells/well. Poly-D-Lysine Coated Plates contain a PDL polymer coating that creates a uniform positive charge at the surface of the plastic, thereby facilitating cell attachment, growth and differentiation. […] Both labeled and non-labeled ligands were diluted in binding media (DMEM, 1 mM 1,10-phenanthroline, 200 mg/L bacitracin, 0.5 mg/L leupeptin, 0.3% BSA). […] Cells were incubated for an additional 30 min at 37° C. prior to reading. […] Competition curves were analyzed with GraphPad Prism software using the sigmoidal dose-response (variable slope) classical equation for nonlinear regression analysis.
# MC5R [2] = target: T1, MC5R; conditions: footnote: value denotes an EC50; read-out: EC50 MC5R (values derived from literature); cited from earlier work
# [3] = system: A375/MC1R xenograft tumor; experiment: Intravital confocal imaging of dorsal skin-fold window chamber tumor xenograft; format: in vivo, SCID mouse; conditions: for tumor cell internalization of probe: 24 h after injection
# Method: All procedures were carried out in compliance with the Guide for the Care and Use of Laboratory Animal Resources (1996), National Research Council, and approved by the Institutional Animal Care and Use Committee, University of South Florida. A dorsal skin-fold window chamber was used to study the pharmacokinetics of imaging agent uptake immediately after i.v. injection of the probe. Starting 3 days prior to the surgery, mice were daily administered 1 ml of sterile saline subcutaneously at the planned site of the window in order to loosen connective tissue and create a receiving “pocket”. SCID mice were prepared immediately before surgery; the surgical site was shaved, and then a combination of oxygen and isoflurane was used for anesthesia (animals underwent induction with 3.5% isoflurane and were maintained at 1.5-2.0%). The window chamber method utilizes a titanium steel or plexiglass “saddle” that is sutured to the back of the mouse and holds a flap of dorsal skin vertically away from the mouse's body. A small “window” of skin (approximately 5 mm in diameter) was surgically excised from the retained skin flap of the anesthetized SCID mouse. Tumor constructs were engineered using the tumor droplet method. A375/MC1R or A375 parental melanoma cells were suspended in 2.5 mg/ml of type I collagen (BD Biosciences #354249) and 1×DMEM at a final concentration of 2.5×10^6 cells/ml. Using a 48-well non-tissue culture plate, a 15 µl drop of the tumor cell suspension was polymerized in the center of the well. After brief polymerization (10-15 minutes) at 37° C., a microvessel outer layer was added that completely surrounded the droplet. The microvessel outer layer consisted of 3 mg/ml of type I collagen, 1×DMEM and, 12,000 to 15,000 GFP expressing rat microvessel fragments/ml. After 4-6 days of culture at 37 C, the constructs were then implanted into the “window chamber” by placing them directly onto the exposed subcutaneous fascia. A glass cover was then attached to the center of the “saddle” to cover the fascia and implanted tumor cells. […]
# Sequence of MC1R (Q01726 whole entry): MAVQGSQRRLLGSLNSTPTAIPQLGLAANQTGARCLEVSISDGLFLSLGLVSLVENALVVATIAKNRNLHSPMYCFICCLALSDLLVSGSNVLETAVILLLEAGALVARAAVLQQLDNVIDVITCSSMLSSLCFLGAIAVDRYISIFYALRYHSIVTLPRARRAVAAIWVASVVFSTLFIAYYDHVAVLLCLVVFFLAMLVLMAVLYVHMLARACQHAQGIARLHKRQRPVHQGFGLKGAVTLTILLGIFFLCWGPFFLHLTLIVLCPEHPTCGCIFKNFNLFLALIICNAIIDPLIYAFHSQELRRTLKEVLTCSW
# T1 sequence (P33032 whole entry): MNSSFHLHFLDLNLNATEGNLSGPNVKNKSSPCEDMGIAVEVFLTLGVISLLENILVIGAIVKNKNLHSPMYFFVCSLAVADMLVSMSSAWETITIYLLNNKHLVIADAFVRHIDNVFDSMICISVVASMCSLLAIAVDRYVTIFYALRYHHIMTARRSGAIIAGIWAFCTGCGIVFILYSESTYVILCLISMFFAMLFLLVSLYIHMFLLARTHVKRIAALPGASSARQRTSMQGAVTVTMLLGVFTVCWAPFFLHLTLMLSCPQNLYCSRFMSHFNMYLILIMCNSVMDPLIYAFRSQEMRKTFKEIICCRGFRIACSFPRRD
# Sequence of MC4R (P32245 whole entry): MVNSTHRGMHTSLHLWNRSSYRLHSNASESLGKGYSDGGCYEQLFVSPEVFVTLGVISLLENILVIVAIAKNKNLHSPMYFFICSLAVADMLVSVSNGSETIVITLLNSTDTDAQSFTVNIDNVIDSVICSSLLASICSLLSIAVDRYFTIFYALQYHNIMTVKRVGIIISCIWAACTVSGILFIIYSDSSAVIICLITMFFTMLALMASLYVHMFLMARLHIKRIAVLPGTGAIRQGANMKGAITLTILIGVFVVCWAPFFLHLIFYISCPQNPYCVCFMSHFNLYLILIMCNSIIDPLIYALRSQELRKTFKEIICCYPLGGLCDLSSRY
compound,measurement,setting,value
"CC(=O)N[C@@H](CCc1ccccc1)C(=O)N[C@@H](Cc1cnc[nH]1)C(=O)N[C@H](Cc1ccccc1)C(=O)N[C@@H](CCCN=C(N)N)C(=O)N[C@@H](Cc1c[nH]c2ccccc12)C(N)=O [Compound 2, Ac-Homophenylalanine-His-DPhe-Arg-Trp-NH2]",Ki,"MC1R; HCT116/hMC1R cells, competition with Eu-NDP-α-MSH, read-out: Ki MC1R (values determined)",1.77 nM
"N=C(N)NCCC[C@H](NC(=O)[C@@H](Cc1ccccc1)NC(=O)[C@H](Cc1c[nH]cn1)NC(=O)C=Cc1ccc(O)cc1)C(=O)N[C@@H](Cc1c[nH]c2ccccc12)C(N)=O [Compound 3, 4-hydroxycinnamoyl-His-DPhe-Arg-Trp-NH2]",Ki MC5R (values determined),MC5R [1],no affinity
same,Ki MC1R (values determined),"MC1R; HCT116/hMC1R cells, competition with Eu-NDP-α-MSH",no affinity
same,Ki MC4R (values determined),MC4R,no affinity
"C#CCCCC(=O)NCCCC[C@H](NC(=O)CNC(=O)[C@H](Cc1c[nH]c2ccccc12)NC(=O)[C@H](CCCNC(=N)N)NC(=O)[C@@H](Cc1ccccc1)NC(=O)[C@H](Cc1c[nH]cn1)NC(=O)CCCc1ccccc1)C(N)=O [Compound 4, 4-phenylbutyry1-His-DPhe-Arg-Trp-Gly-Lys(hex-5-ynoyl)-NH2] ({Butanoyl(4-Ph)}-H[dF]RWGK(Butanoyl(4-ethynyl))-NH2)",1R/4R selectivity (values determined),MC1R,1000
same,1R/5R selectivity (values determined),MC1R; ratio of MC5R Ki to MC1R Ki,200
"CCCC[C@H](NC(=O)[C@@H](NC(=O)[C@@H](N)Cc1ccc(O)cc1)C(C)C)C(=O)NCC(=O)N[C@@H](Cc1cnc[nH]1)C(=O)N[C@H](Cc1ccc2ccccc2c1)C(=O)N[C@@H](CCCN=C(N)N)C(=O)N[C@H](Cc1c[nH]c2ccccc12)C(=O)N[C@@H](CC(=O)O)C(=O)N[C@@H](CCCN=C(N)N)C(=O)N[C@@H](Cc1ccccc1)C(=O)NCC(N)=O [Compound 5, H-Tyr-Val-Nle-Gly-His-DNal(2′)-Arg-DTrp-Asp-Arg-Phe-Gly-NH2]",EC50,MC5R [2],3.5 nM
"C#CCCCC(=O)NCCCC[C@H](N)C(=O)N[C@@H](Cc1ccc(O)cc1)C(=O)N[C@H](C(=O)N[C@@H](CCCC)C(=O)NCC(=O)N[C@@H](Cc1cnc[nH]1)C(=O)N[C@H](Cc1ccc2ccccc2c1)C(=O)N[C@@H](CCCNC(=N)N)C(=O)N[C@H](Cc1c[nH]c2ccccc12)C(=O)N[C@@H](CC(=O)O)C(=O)N[C@@H](CCCNC(=N)N)C(=O)N[C@@H](Cc1ccccc1)C(=O)NCC(N)=O)C(C)C [Compound 6, H-Lys(hex-5-ynoyl)-Tyr-Val-Nle-Gly-His-DNal(2′)-Arg-DTrp-Asp-Arg-Phe-Gly-NH2]",Ki,MC5R [1]; read-out: Ki MC5R (values determined),1.48 nM
same,Ki,MC4R; read-out: Ki MC4R (values determined),1.74 nM
"C#CCCCC(=O)NCCCC[C@H](N)C(=O)N[C@@H](Cc1ccc(O)cc1)C(=O)N[C@H](C(=O)N[C@@H](CCCC)C(=O)NCC(=O)N[C@@H](Cc1c[nH]cn1)C(=O)N[C@H](Cc1ccc2ccccc2c1)C(=O)N[C@@H](CCCNC(=N)N)C(=O)N[C@H](Cc1ccccc1)C(=O)N[C@@H](CC(=O)O)C(=O)N[C@@H](CCCNC(=N)N)C(=O)N[C@@H](Cc1ccccc1)C(=O)NCC(N)=O)C(C)C [Compound 8, H-Lys(hex-5-ynoyl)Tyr-Val-Nle-Gly-His-DNal(2′)-Arg-DPhe-Asp-Arg-Phe-Gly-NH2] (H-K(Butanoyl(4-ethynyl))YV[Nle]GH[d2Nal]R[dF]DRFG-NH2)",1R/4R selectivity (values determined),MC1R,1.05
MC1R-Cy5: MC1R ligand conjugated to Cy5 maleimide dye ({Butanoyl(4-Ph)}-H[dF]RWGK([Mpa-Cy5 maleimide])-NH2),tumor cell internalization of probe,[3],fully internalized
same,tumor cell internalization of probe,[3]; listed as MC1R-635 probe,detected inside the cells
same,time at which probe binds tumor cells in vivo,"[3]; after i.v. injection, 5 nmol/kg",≤ 5 min
